Test results as given in US20200064357A1, “METHODS FOR DETERMINING AND MONITORING GASTROINTESTINAL INFLAMMATION” (Protagonist Therapeutics, Inc., priority 2016, published 2020).
Entries after “also recorded” stand apart in the source; their conditions may differ.

What was measured:
Sprague-Dawley rats [1] = assay: Serum LCN2, TNBS rat colitis model, ELISA (Example E2); type: in vivo; settings: per ml of serum, vs vehicle
Experimental: (§1) The animals were grouped into sham, vehicle, and Peptide 993 treatment at 31 mg/kg/day. Feces were collected from the distal colon of rats and were immediately frozen at the time of necropsy. The feces samples were weighed and homogenized in extraction buffer (PBS pH 7.4 containing Pierce Protease Inhibitors, 3× volume:weight). The samples were incubated on ice for 90 minutes, with intermittent vortexing for complete homogenization. After centrifugation at 3000 g at 4 C, the homogenates were transferred to fresh tubes and subjected to another centrifugation at 14000 g at 4 C. The cleared supernatants were saved in multiple aliquots and stored at −80 C until analysis.
The serum samples were immediately frozen and thawed only once before use in the ELISA. For LCN2, the samples were diluted at different ratios with assay dilution buffer to capture the large variation in concentration amongst the different groups. The dilution ratios used were 1:10 (for sham), 1:1000, 1:2000 and 1:10000 (vehicle and Peptide 993). Fecal Lipocalin2(LCN2)/NGAL analysis:
Serum samples were analyzed for LCN2 concentration using the above ELISA protocol. Serum samples were used at dilutions ranging from 1:[…] to ensure that the measurements were within the range and sensitivity of the kit. […] Statistical analysis was performed using 1-Way-ANOVA with Dunnetts's multiple comparison.

Sprague-Dawley rats [2] = assay: Protein biomarkers in feces, TNBS rat colitis model, ELISA (Example E2); type: in vivo; settings: 31 mg/kg/day, normalized to total protein, vs vehicle
Experimental: as §1
The total protein in each sample was quantified using BCA assay. LCN2, MPO, and MMP-9 protein concentration in the feces samples were analysed using commercially available rat ELISA kits. For LCN2, the samples were diluted at different ratios with assay dilution buffer to capture the large variation in concentration amongst the different treatment groups. The dilution ratios used were 1:20 (sham), 1:200, 1:1000, 1:2000, and 1:4000 (vehicle and Peptide 993).
The concentration of LCN2 was normalized to the total protein measured for the sample. […] Statistical analysis was performed using 1-Way-ANOVA with Dunnetts's multiple comparison.
Fecal homogenates were analyzed for Myeloperoxidase (MPO) concentration using the Rat MPO ELISA kit (Catalog # HK105, Hycult biotech). The samples were used at dilutions ranging from 1:20 to 1:1000, to ensure that the measurements were within the range and sensitivity of the kit. […] A linear equation was used to fit the Standard Curve and the fitting parameters were used to calculate the concentration of MPO. The concentration of MPO for each sample was normalized to the total protein measured for the sample as described above. […] Statistical analyses were performed using 1-Way-ANOVA with Dunnetts's multiple comparison.

Sprague-Dawley rats [3] = assay: Biomarker gene expression in distal colon, TNBS rat colitis model, quantitative real time PCR (Example E3); type: in vivo; settings: 31 mg/kg/day, normalized to HPRT1, vs vehicle group
Experimental: (§2) Animals from the sham group (without TNBS exposure), the vehicle group (exposed to TNBS and treated with vehicle only) and the group treated with Peptide 993 (exposed to TNBS and treated with Peptide 993 at 31 mg/kg/day) were subjected for gene expression and miroRNA analysis
For extraction of total RNA from the distal colons, tissue samples stored at −20° C. in the buffer RNAlater, were thawed and homogenized in RLTplus Buffer (Qiagen) at 20× volume:wt, then subsequently purified using the RNeasy Plus Mini Kit (Qiagen). The concentration of the total RNA was measured and the quality of the RNAs was verified on a gel. The total RNA was used in QuantiTect Reverse Transcription Kit (Qiagen) to obtain cDNA templates for the quantative real time PCR. The expression of the genes LCN2 (Lipocalin 2), S100A8 (a subunit of calprotectin) and CLDN8 (Claudin 8 of the claudin family of tight junction proteins) were measured using Taqman and TaqMan Fast Advanced Master Mix (Applied Biosystems). The threshold cycle number (Ct) values, that are indicative of abundance of template, were normalized using the endogenous control gene HPRT1. The Relative expression of each gene was calculated using the normalized Ct values. Statistical analysis of relative expression was performed using One-way ANOVA method (with Dunnett's multiple comparisons) to compare the variations Vs Group 2.

Sprague-Dawley rats [4] = assay: IL-23-directed cytokines in distal colon of 5% DSS-induced acute colitis rats, qRT-PCR and ELISA (Example E4); type: in vivo, rat
Experimental: In the second model, acute colitis was induced in Sprague-Dawley rats by ad libitum access to 5% DSS dissolved in drinking water every day until analysis at day five. The animals were grouped into sham+vehicle (PO TID), DSS+vehicle (PO TID), and DSS+Peptide 993 treatment at 61 mg/kg/day (PO TID+in drinking water).
Expression of genes encoding IL-17A, IL-17F, and IL-22 was quantified by quantitative reverse transcription polymerase chain reaction (qRT-PCR), and production of IL-22 protein was quantified by ELISA. Relative expression was normalized to that of HPRT1; and values were determined as geometric mean±95% confidence interval. Protein concentration is shown as mean±SD. Statistical significance was assessed by One-way ANOVA with post-hoc Dunnett's vs. Vehicle control: *p≤0.05; **p≤0.01; ***p≤0.001; ns, not significant.

Sprague-Dawley rats [5] = assay: miR-223-3p expression in distal colon and serum, TNBS rat colitis model (Example E3); type: in vivo; settings: 31 mg/kg/day, vs vehicle group
Experimental: as §2
For extraction of microRNA from distal colon homogenate, the RNeasy Plus Mini Kit and the RNeasy MinElute Cleanup Kit (Qiagen) were used. For extraction of microRNA from serum, miRNeasy Serum/Plasma Kit (Qiagen) was used. To verify uniformity of microRNA extraction, a synthetic microRNA cel-miR-39-3p, at a fixed concentration, was spiked into both distal colon homogenates and serum samples. The microRNAs purified from distal colon and serum was used in the Advanced miRNA cDNA Synthesis Kit (Applied Biosystems) to obtain cDNA templates for the quantative real time PCR. The expression of miR-223-3p, a microRNA known to negatively regulate CLDN8 gene expression, was measured using TaqMan Advanced miRNA assay (Applied Biosystems). The endogenous control miR-16-5p was used for normalization in the distal colon, and the endogenous control miR-24-3p was used for normalization in the serum. Relative expression of miR-223-3p was calculated using the normalized Ct values. […]

[6] = DSS rats, 61 mg/kg/day oral, distal colon, normalized to HPRT1

Structure (SMILES): CC(=O)NC(CCCNC(=N)N)C(=O)NC1CCSCC(C(=O)NC(Cc2ccc(OCCN)cc2)C(=O)NC(Cc2ccc3ccccc3c2)C(=O)NC2(C(=O)NC(CCC(=O)O)C(=O)NC(CC(N)=O)C(=O)NC(CC(N)=O)C(N)=O)CCOCC2)NC(=O)C(CCC(N)=O)NC(=O)C(Cc2c[nH]c3ccccc23)NC(=O)C(C(C)O)NC(=O)C(CCC(N)=O)NC1=O (centres unmarked) [Peptide 993, Ac-[(D)-Arg]-cyclo[[Abu]-QTWQC]-[Phe[4-(2-aminoethoxy)]]-[2-Nal]-[4-amino-4-carboxy-tetrahydropyran]-ENN-NH2]
- serum LCN2 concentration (Sprague-Dawley rats [1]): statistically significant decrease
- fecal LCN2 concentration (Sprague-Dawley rats [2]): statistically significant decrease; also recorded: stastically significant decrease
- fecal MMP-9 concentration (Sprague-Dawley rats [2]): stastically significant decrease
- fecal MPO concentration (Sprague-Dawley rats [2]): statistically significant decrease; also recorded: stastically significant decrease
- S100A8 expression, distal colon (Sprague-Dawley rats [3]): not statistically significant, however there was a marked reduction in the average expression of the group
- relative expression of CLDN8, distal colon (Sprague-Dawley rats [3]): increase
- relative expression of LCN2, distal colon (Sprague-Dawley rats [3]): significant reduction
- abundance of IL-22 protein (Sprague-Dawley rats [4]; DSS rats, 61 mg/kg/day oral, distal colon, ELISA): significant decreases
- relative expression of gene encoding IL-17A (Sprague-Dawley rats [4]; [6]): significant decreases
- relative expression of gene encoding IL-17F (Sprague-Dawley rats [4]; [6]): significant decreases
- relative expression of gene encoding IL-22 (Sprague-Dawley rats [4]; [6]): significant decreases
- mRNA and/or protein levels of IL-23-directed cytokines in the distal colons (Sprague-Dawley rats [4]; DSS-treated rats, 61 mg/kg/day PO TID + in drinking water, day five, vs vehicle): significant reduction
- miR-223-3p expression in the distal colon (Sprague-Dawley rats [5]; normalized to miR-16-5p): not statistically significant, however there was a marked reduction in the average expression of the group
- miR-223-3p expression in serum (Sprague-Dawley rats [5]; normalized to miR-24-3p): no apparent change
